Data reported in patent US20220016114A1, “Heart Rate Decreasing Agent” (FURUKAWA RESEARCH OFFICE CO., LTD., priority 2018, published 2022).
“Also recorded” adds a separate entry of the source.

System: heart rate of a person
Test: Variation in heart rate before and after oral ingestion of orotic acid tablets, at rest and after drinking
Type: in vivo, human
Details: for Symptoms (4 to 5 hours after orotic acid ingestion): placebo: languor
Experimental: Tablets consisting of orotic acid were orally ingested and the variation in heart rate was measured before and after oral ingestion. The test subject was a person. Although they were told at their medical checkup that their cholesterol was slightly high, they had not taken any medication and had no preexisting condition. Their blood pressure was in the normal range, and they had never been diagnosed with a blood pressure problem in the past. Their heart rate was slightly high at about 89 to 92 beats/min, and rarely fell below 86 beats/min even at rest. Since the heart rate quickly increases due to exercise and tension or the like, the measurement day was spent as much as possible doing desk work and the like, and the measurement was made under stable conditions after sitting on a chair for at least several minutes. They were drinking 2 cans of beer and 2 to 3 double glasses of shochu daily. Their heart rate after drinking was increasing to about 105 to 115 beats/min (120 beats/min in rare cases), and they were feeling drunk and mild palpitation. They were also feeling sleepy on some days. The test subject ingested a tablet containing 200 mg of orotic acid by oral administration, and the measurement of their heart rate was started.

Q: Which results are given for `O=C(O)c1cc(=O)[nH]c(=O)[nH]1` [Orotic acid, 1,2,3,6-tetrahydro-2,6-dioxo-4-pyrimidinecarboxylic acid]?
A: Overall effect on heart rate and on daily palpitation and fatigue (conclusion from Table 1, person, 200 mg oral): a decrease in heart rate was clearly observed; also recorded: improved the palpitation and fatigue that were felt on a daily basis; Heart rate after stabilisation (later than 4 hours after ingestion) (person, 200 mg oral): in the 70s beats/min to the lower 80s beats/min; Time after ingestion from which heart rate gradually decreased (person, 200 mg oral): about 2 hours; Symptoms (after drinking) (person, 200 mg oral, after usual beer and shochu, placebo: slight drunkenness, mild palpitation, drowsiness): felt almost no drunkenness or palpitation; Heart rate 1 to 2 hours after drinking (person, 200 mg oral, usual amount of beer and shochu after the decrease in heart rate, placebo 105 to 115 beats/min): 85 to 103 beats/min; Symptoms (4 to 5 hours after orotic acid ingestion) (person, 200 mg oral): Clear head; also recorded: No languor; Symptoms (4 to 5 hours after orotic acid ingestion) (person, 200 mg oral, listed as orotic acid): their head was more refreshed and no longer felt lethargic; Heart rate 4 hours after ingestion (person, 200 mg oral, usual heart rate about 89 to 92 beats/min): ≤ 80 beats/min; Heart rate 4 to 5 hours after orotic acid ingestion (person, tablet containing 200 mg orotic acid orally, sitting at rest, placebo 88 to 93 beats/min): 77 to 82 beats/min
